# Assay results published in patent US8871777B2, “Phenylpyrimidone compounds, the pharmaceutical compositions, preparation methods and uses thereof” (Topharman Shanghai Co., Ltd., priority 2008, dated 2014).
# Tests used:
# [1] = molecular target: T1, human blood platelet PDE5 (Homo sapiens, UniProt O76074); assay: PDE5 enzyme inhibition activity test (scintillation proximity); format: biochemical
# T1 construct: obtained by suitably treating various tissues and separating the enzyme with FPLC; from tissue; host or cells: human blood platelets
# Summary of the method: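 Enzymes were used immediately after isolation: PDE6 from bovine retina, PDE5 from human platelets. Each was incubated 30 min at 30 °C with varying inhibitor concentrations and a small amount of substrate in Tris/HCl pH 7.5 buffer with MgCl2 and EGTA. Reactions were quenched with zinc-sulphate yttrium silicate SPA beads and product counted by scintillation.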
# PDE6 in bovine retina = molecular target: T2, PDE6 in bovine retina (Bos taurus, UniProt P11541+P23439); assay: PDE6 enzyme inhibition activity test (scintillation proximity); format: biochemical; settings: for IC50: PDE6 separated from bovine retina, read-out: PDE6 IC50; for PDE6 IC50/PDE5 IC50: selectivity, ratio of IC50 PDE6/IC50 PDE5
# T2 construct: obtained by suitably treating various tissues and separating the enzyme with FPLC; from tissue; host or cells: bovine retina
# T2 sequence (P11541 2-856 limits assumed): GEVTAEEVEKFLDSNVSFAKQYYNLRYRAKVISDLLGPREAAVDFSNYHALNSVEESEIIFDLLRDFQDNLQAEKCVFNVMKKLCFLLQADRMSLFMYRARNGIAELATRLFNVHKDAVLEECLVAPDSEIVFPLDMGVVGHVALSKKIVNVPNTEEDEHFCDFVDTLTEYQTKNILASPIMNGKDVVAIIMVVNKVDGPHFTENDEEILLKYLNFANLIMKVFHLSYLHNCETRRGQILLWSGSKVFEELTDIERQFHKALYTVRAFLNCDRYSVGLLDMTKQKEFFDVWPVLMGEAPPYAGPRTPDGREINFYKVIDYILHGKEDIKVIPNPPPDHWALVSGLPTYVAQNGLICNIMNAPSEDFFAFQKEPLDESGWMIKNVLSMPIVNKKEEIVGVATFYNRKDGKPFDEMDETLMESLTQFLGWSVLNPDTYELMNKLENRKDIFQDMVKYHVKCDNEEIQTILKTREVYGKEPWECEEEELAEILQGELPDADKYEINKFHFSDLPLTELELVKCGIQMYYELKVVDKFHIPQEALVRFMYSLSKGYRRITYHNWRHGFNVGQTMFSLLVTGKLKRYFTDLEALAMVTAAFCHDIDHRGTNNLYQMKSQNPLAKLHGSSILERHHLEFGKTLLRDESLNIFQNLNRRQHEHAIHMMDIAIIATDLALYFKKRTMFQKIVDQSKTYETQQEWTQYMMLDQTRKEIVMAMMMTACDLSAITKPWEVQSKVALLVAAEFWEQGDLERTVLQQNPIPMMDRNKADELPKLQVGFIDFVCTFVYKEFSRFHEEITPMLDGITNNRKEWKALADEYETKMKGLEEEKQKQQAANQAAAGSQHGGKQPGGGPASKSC
# T2 sequence (P23439 2-850 limits assumed): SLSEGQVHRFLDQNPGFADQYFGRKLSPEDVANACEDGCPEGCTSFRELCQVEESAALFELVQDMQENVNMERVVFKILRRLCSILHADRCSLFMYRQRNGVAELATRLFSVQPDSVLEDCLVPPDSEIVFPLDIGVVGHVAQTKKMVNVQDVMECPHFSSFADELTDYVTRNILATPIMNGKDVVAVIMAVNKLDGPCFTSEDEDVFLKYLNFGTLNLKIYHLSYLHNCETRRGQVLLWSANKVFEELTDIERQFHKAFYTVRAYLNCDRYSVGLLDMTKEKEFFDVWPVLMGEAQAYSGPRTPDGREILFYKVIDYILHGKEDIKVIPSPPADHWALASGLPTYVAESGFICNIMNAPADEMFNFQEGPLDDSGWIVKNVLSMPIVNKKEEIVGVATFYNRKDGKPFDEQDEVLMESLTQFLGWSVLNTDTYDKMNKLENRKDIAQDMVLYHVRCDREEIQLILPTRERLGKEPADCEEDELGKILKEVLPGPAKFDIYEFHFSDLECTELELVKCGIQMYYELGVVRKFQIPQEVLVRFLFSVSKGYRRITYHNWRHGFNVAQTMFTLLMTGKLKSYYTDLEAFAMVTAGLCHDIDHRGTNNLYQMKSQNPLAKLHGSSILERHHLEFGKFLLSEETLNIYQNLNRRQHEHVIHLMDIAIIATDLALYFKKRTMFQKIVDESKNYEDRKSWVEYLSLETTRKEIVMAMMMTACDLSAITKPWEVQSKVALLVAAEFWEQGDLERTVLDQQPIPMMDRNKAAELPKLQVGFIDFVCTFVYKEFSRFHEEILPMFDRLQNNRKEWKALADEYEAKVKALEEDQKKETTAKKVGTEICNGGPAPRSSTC
# Protocol: More specifically, PDE5 and PDE3 were obtained from human blood platelet, and PDE6 was separated from bovine retina. Upon enzyme was separated out, the enzyme inhibition activity test would be carried out immediately. The said enzyme inhibition activity test was performed by directly detecting the scintillation proximity of AMP/GMP using TRKQ7100 and TRKQ7090 kits, which was generally as follows. In the presence of different concentrations of inhibitor and a small amount of substrate, 10 μl of buffer (50 mM Tris/HCl PH 7.5, 8.3 mM MgCl2, 1.7 mM EGTA) was added, and then water was added to a final volume of 100 μl. The reaction was initiated with a fixed amount of enzyme, incubated at 30° C. for 30 min, and then quenched with 50 μl of yttrium silicate beads comprising zinc sulphate. After shaken for 20 min, the reaction mixture was put in dark and settled for 30 min, and then readed on a BECKMAN LS6500 MULTI-PURPOSE SCINTILLATION COUNTER.
IC50 ([1]; PDE5 table),IC50 ([1]; as repeated in the PDE6 table),IC50 (PDE6 in bovine retina),PDE6 IC50/PDE5 IC50 (PDE6 in bovine retina),SMILES
0.52 nM,0.52 nM,2.78 nM,5.3,"CCCOc1ccc(C(=O)NC(Cc2ccccc2)C(=O)OC)cc1-c1nc(CC)c(CC)c(=O)[nH]1 (stereo not shown) [Example 150, methyl 2-(3-(4,5-diethyl-1,6-dihydro-6-oxopyrimidin-2-yl)-4-n-propoxybenzamido)-3-phenylpropionate]"
0.46 nM,0.46 nM,31.8 nM,68.7,CCCOc1ccc(C(=O)N2CCN(CCO)CC2)cc1-c1nc(CC)c(CC)c(=O)[nH]1 [Example 164]
0.33 nM,0.33 nM,5.15 nM,15.6,"CCCOc1ccc(C(=O)NC(C)CO)cc1-c1nc(CC)c(CC)c(=O)[nH]1 (stereo not shown) [Example 166, 3-(4,5-diethyl-1,6-dihydro-6-oxopyrimidin-2-yl)-N-(1-hydroxyprop-2-yl)-4-n-propoxybenzamide]"
0.54 nM,0.54 nM,5.73 nM,6.99,"CCCOc1ccc(NC(=O)C2CCCN2C(C)=O)cc1-c1nc(CC)c(CC)c(=O)[nH]1 (stereo not shown) [Example 108, 1-acetyl-N-(3-(4,5-diethyl-1,6-dihydro-6-oxopyrimidin-2-yl)-4-n-propoxyphenyl)pyrrolidinyl-2-formamide]"
0.11 nM,0.11 nM,10.4 nM,91.3,"CCCOc1ccc(C(=O)NCCCS(=O)(=O)O)cc1-c1nc(CC)c(CC)c(=O)[nH]1 [Example 169, 3-(3-(4,5-diethyl-1,6-dihydro-6-oxopyrimidin-2-yl)-4-n-propoxybenzamido)propyl-1-sulfonic acid]"
1.99 nM,1.99 nM,25.2 nM,12.7,"CCCOc1ccc(C(=O)CN2CCOCC2)cc1-c1nc(CC)c(CC)c(=O)[nH]1 [Example 76, 5,6-diethyl-2-(5-(2-morpholinylacetyl)-2-n-propoxyphenyl)pyrimid-4(3H)-one]"
1.98 nM,1.98 nM,11.7 nM,5.88,"CCCOc1ccc(C(=O)NCC(=O)OCC)cc1-c1nc(CC)c(CC)c(=O)[nH]1 [Example 89, Ethyl 2-(3-(4,5-diethyl-1,6-dihydro-6-oxopyrimidin-2-yl)-4-n-propoxybenzamido)acetate]"

SMILES,IC50 ([1]; PDE5 table),IC50 ([1]; as repeated in the PDE6 table),IC50 (PDE6 in bovine retina),PDE6 IC50/PDE5 IC50 (PDE6 in bovine retina)
"CCCOc1ccc(NS(C)(=O)=O)cc1-c1nc(C(C)C)c(Br)c(=O)[nH]1 [Example 50, 5-Bromo-6-isopropyl-2-(2-n-propoxy-5-mesylamidophenyl)pyrimid-4(3H)-one]",1.24 nM,–,114 nM,91.9
